# Source: publication PMC8050276, “Estradiol analogs attenuate autophagy, cell migration and invasion by direct and selective inhibition of TRPML1, independent of estrogen receptors” (Scientific Reports, 2021)
# Entries after “also recorded” stand apart in the source; their conditions may differ. Like-named read-outs stand apart in the source and are kept apart here.
# What was measured:
# [1] = system: TRPC3, 4, 5, 6, and 7; TRPM2, 3, and 8; TRPV1, 2, 3, and 4; assay: Fluo-4 counter screen against other TRP channels stably expressed in HEK293; format: cell-based; conditions: most channels; activated with known ligands
# hTRPML1∆NC-YFP [2] = target: hTRPML1∆NC-YFP (Homo sapiens, UniProt Q9GZU1); format: cell-based
# hTRPML1∆NC-YFP (Homo sapiens, UniProt Q9GZU1), sequence (Q9GZU1 whole entry): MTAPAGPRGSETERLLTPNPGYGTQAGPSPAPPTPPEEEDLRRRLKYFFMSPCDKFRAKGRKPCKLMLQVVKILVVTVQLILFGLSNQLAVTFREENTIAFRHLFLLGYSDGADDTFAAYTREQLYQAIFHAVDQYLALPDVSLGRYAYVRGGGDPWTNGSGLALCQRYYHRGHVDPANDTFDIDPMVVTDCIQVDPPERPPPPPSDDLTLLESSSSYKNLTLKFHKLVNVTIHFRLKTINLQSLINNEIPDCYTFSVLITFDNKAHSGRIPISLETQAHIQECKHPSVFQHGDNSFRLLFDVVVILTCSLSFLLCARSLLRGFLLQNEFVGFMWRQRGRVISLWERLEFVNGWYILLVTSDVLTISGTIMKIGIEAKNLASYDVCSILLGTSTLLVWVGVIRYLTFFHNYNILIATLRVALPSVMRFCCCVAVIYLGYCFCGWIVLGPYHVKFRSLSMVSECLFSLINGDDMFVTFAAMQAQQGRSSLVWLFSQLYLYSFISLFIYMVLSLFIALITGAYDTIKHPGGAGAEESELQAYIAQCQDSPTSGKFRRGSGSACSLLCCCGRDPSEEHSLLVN
# Description: (§1) To identify inhibitors of TRPML1 and TRPML3, the Spectrum Collection compound library (MS Discoveries; 2000 compounds) and additional 430 bioactive compounds were screened. To this end, fluorometric Ca^2+ influx assays were performed by using the calcium dye Fluo-4/AM (Invitrogen, Thermo Fisher Scientific, Waltham, MA, USA) and a custom-made fluorescence imaging plate reader built into a robotic liquid handling station (Freedom Evo 150, Tecan, Männedorf, Switzerland). […] Screening compounds dissolved in DMSO (10 mM) were prediluted in 150 mM NaCl, 20 mM HEPES, pH 7.4, to a concentration of 200 µM. For primary screens, HEK293 stably expressing plasma membrane-targeted TRPML1 or TRPML3 were trypsinized and resuspended in cell culture medium supplemented with 4 µM Fluo-4/AM. After incubation at 37 °C for 30 min, the cell suspension was briefly centrifuged resuspended in HBS, and dispensed into black pigmented, clear-bottom 384-well microwell plates (Greiner μClear, Frickenhausen, Germany). Plates were placed into the FLIPR and fluorescence signals (excitation 470 nm, emission 515 nm) were recorded with a Zyla 5.5 camera (Andor, Belfast, UK) and the μManager software like previously described. In a first video, compound libraries were successively added to the cells with the Tecan 96-tip multichannel arm to a final concentration of 20 µM to map unspecific effects like autofluorescence or toxicity. In a second step the agonist ML-SA1 was pipetted in each well and fluorescence signals were recorded for 10 min. Analyses were done by calculating fluorescence intensities for each well and background areas with ImageJ (National Institutes of Health, Bethesda, MD, USA). Finally, the background was subtracted and the fluorescence intensities were normalized to initial intensities (F/F0). Concentration response curves were generated by the same procedure but compounds were manually prediluted in 96-well plates containing HBS, now supplemented with 0.1% bovine serum albumin. Here data was fitted to a four-parameter Hill equation to obtain Imin, Imax, IC50), and the Hill coefficient n.
# hTRPML1∆NC-YFP [3] = format: cell-based, human; conditions: for TRPML1:TRPML2 fold selectivity / TRPML1:TRPML3 fold selectivity: ratio of Fluo-4 IC50 values; for TRPML isoform selectivity profile: TRPML1, 2, 3 and TPC2, Fluo-4
# Description: as §1
# hTPC2L11A/L12A-RFP = target: T1, hTPC2L11A/L12A-RFP (Homo sapiens, UniProt Q8NHX9, L11A/L12A); assay: Single cell Fura-2 calcium imaging, HEK293 stably expressing hTPC2L11A/L12A-RFP; format: cell-based; conditions: compound alone or 10 µM after TPC2-A1-N (10 µM)
# T1 construct: expressed in transfected cells
# T1 sequence (Q8NHX9 whole entry L11A/L12A): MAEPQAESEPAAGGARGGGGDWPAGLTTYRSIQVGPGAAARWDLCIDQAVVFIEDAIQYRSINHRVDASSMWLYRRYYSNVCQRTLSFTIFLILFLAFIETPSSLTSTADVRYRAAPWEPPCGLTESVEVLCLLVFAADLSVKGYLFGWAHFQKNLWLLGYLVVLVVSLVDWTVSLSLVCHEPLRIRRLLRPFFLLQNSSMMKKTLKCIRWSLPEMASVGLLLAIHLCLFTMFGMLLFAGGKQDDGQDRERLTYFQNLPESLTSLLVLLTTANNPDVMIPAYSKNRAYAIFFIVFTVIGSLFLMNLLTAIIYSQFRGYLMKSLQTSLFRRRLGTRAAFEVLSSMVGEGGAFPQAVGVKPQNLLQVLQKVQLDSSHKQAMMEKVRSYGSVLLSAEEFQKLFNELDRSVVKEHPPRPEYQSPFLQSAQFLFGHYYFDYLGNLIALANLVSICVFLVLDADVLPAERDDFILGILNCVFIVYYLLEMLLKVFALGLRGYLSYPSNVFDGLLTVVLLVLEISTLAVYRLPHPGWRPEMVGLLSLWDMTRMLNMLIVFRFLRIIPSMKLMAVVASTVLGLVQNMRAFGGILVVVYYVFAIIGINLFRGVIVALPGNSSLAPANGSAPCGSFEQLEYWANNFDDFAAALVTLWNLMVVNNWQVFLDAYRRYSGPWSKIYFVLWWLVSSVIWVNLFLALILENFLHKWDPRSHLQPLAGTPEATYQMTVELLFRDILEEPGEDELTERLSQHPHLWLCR
# Description: Single cell Ca^2+ imaging experiments were performed using Fura-2 as previously described. HEK293 cells stably expressing hTRPML1∆NC-YFP, hTRPML2-YFP, hTPPML3-YFP or hTPC2L11A/L12A-RFP (22, 24) were cultured at 37 °C with 5% of CO2 in Dulbecco’s modified Eagle medium (Thermo Fisher), supplemented with 10% fetal bovine serum, 100 U/mL penicillin, and 0.1 mg/mL streptomycin. Cells were plated onto poly-L-lysine (sigma)-coated glass coverslips and grown for 2–3 days. For Ca^2+ imaging experiments cells were loaded for 1 h at room temperature with Fura-2 AM (4.0 µM) and 0.005% (v/v) pluronic acid (both from Thermo Fisher) in HEPES-buffered solution (HBS) comprising 138 mM NaCl, 6 mM KCl, 2 mM MgCl2, 2 mM CaCl2, 10 mM HEPES, and 5.5 mM D-glucose (adjusted to pH 7.4 with NaOH). After loading, cells were washed with HBS and mounted in an imaging chamber. All recordings were performed in HBS. Ca^2+ imaging was performed using a Leica DMi8 live cell microscope. Fura-2 was excited at 340 nm/380 nm. Emitted fluorescence was captured using 515 nm long-pass filter. Compounds were pre diluted in DMSO and stored as 10 mM stock solutions at − 20 °C, not exceeding three months. Working solutions were prepared directly before using by dilution with HBS.
# [4] = read-out: TRPML1 IC50, Fluo-4, 5 µM ML-SA1, Fig. 2a/4, Table S1
Compound,IC50 at other TRP channels [1],"inhibitory effect on TRPML1 (hTRPML1∆NC-YFP [2]; 12.5 µM compound, 5 µM ML-SA1, Fig. 1f)","IC50 (hTRPML1∆NC-YFP [2]; read-out: TRPML1 IC50, concentration-response retest of screening hits and steroids, Fluo-4, 5 µM ML-SA1, Fig. 1b-e, S1)","primary screen result (hTRPML1∆NC-YFP [3]; 20 µM compound, 5 µM ML-SA1, TRPML1 and TRPML3)","TRPML1 versus TRPML3 selectivity (hTRPML1∆NC-YFP [3]; Fluo-4, TRPML1 vs TRPML3, 5 µM ML-SA1)",TRPML1:TRPML2 fold selectivity (hTRPML1∆NC-YFP [3]),TRPML1:TRPML3 fold selectivity (hTRPML1∆NC-YFP [3]),"effect on hTPC2, Fura-2 (hTPC2L11A/L12A-RFP)",IC50 (hTRPML1∆NC-YFP [2]; [4]),TRPML isoform selectivity profile (hTRPML1∆NC-YFP [3])
"COc1ccc2c(c1)CC[C@@H]1[C@@H]2CC[C@]2(C)[C@@H](O)CC[C@@H]12 [EDME, 17β-estradiol methyl ether]",no meaningful IC50s,completely blocks TRPML1,500 nM,TRPML1 selective hit,highly TRPML1-selective,9.14 fold,30.47 fold,–,–,–
C=Cc1ccc2c(c1)CC[C@@H]1[C@@H]2CC[C@]2(C)[C@@H](O)CC[C@@H]12 [PRU-10],–,–,–,–,–,13.17 fold,38.61 fold,Neither an activating nor a blocking effect,410 nM,further improved selectivity profile compared to EDME; also recorded: good TRPML isoform selectivity profile
CC(=O)c1ccc2c(c1)CC[C@@H]1[C@@H]2CC[C@]2(C)[C@@H](O)CC[C@@H]12 [PRU-12],–,–,–,–,–,18.86 fold,50.29 fold,Neither an activating nor a blocking effect,280 nM,further improved selectivity profile compared to EDME; also recorded: good TRPML isoform selectivity profile
